Measurements as given in patent US12077503B2, “Substituted cyclic amides and their use as herbicides” (FMC CORPORATION, priority 2015, dated 2024).

How the values were obtained:
Format in all cases: in vivo
[1] = tested on: velvetleaf (Abutilon theophrasti); test: Test G Pre-Emergence Protocol; settings: Abutilon theophrasti, pre-emergence, 312 h, evaluated after 13 days; for pest or weed control at 15.625 g/ha: 15.625 g ai/ha; for pest or weed control at 15.625 g/ha / pest or weed control at 250 g/ha: read-out: Velvetleaf damage rating (100=total damage to plant; 0=no damage to plant); for pest or weed control at 62.5 g/ha: 62.5 g ai/ha, 100=total damage to plant, 0=no damage to plant, read-out: Velvetleaf damage rating; for pest or weed control at 250 g/ha: 250 g ai/ha
How it was run: (§1)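 Spraying took place one day after sowing, at 15.625, 62.5 or 250 g/ha, using an acetone/water (50:50) spray solution containing 0.5% Tween 20. Plants were kept under glasshouse conditions (24/16 °C, 14 h light, 65% humidity, watered twice daily), and injury was rated 0–100 at day 13.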

[2] = tested on: corn (Zea mays); test: Test G Pre-Emergence Protocol; settings: Zea mays, pre-emergence, 312 h, evaluated after 13 days; for plant injury at 15.625 g/ha: 15.625 g ai/ha; for plant injury at 15.625 g/ha / plant injury at 250 g/ha: read-out: Corn damage rating (100=total damage to plant; 0=no damage to plant); for plant injury at 62.5 g/ha: 62.5 g ai/ha, 100=total damage to plant, 0=no damage to plant, read-out: Corn damage rating; for plant injury at 250 g/ha: 250 g ai/ha
How it was run: as §1

[3] = tested on: redroot pigweed (Amaranthus retroflexus); test: Test G Pre-Emergence Protocol; settings: Amaranthus retroflexus, pre-emergence, 312 h, evaluated after 13 days; for pest or weed control at 15.625 g/ha: 15.625 g ai/ha; for pest or weed control at 15.625 g/ha / pest or weed control at 250 g/ha: read-out: Pigweed, Redroot damage rating (100=total damage to plant; 0=no damage to plant); for pest or weed control at 62.5 g/ha: 62.5 g ai/ha, 100=total damage to plant, 0=no damage to plant, read-out: Pigweed, Redroot damage rating; for pest or weed control at 250 g/ha: 250 g ai/ha
How it was run: as §1

[4] = tested on: giant foxtail (Setaria faberi); test: Test G Pre-Emergence Protocol; settings: Setaria faberi, pre-emergence, 312 h, evaluated after 13 days; for pest or weed control at 15.625 g/ha: 15.625 g ai/ha; for pest or weed control at 15.625 g/ha / pest or weed control at 250 g/ha: read-out: Foxtail, Giant damage rating (100=total damage to plant; 0=no damage to plant); for pest or weed control at 62.5 g/ha: 62.5 g ai/ha, 100=total damage to plant, 0=no damage to plant, read-out: Foxtail, Giant damage rating; for pest or weed control at 250 g/ha: 250 g ai/ha
How it was run: as §1

[5] = tested on: ivy-leaved morning glory (Ipomoea hederacea); test: Test G Pre-Emergence Protocol; settings: Ipomoea, pre-emergence, 312 h, evaluated after 13 days; for pest or weed control at 15.625 g/ha: 15.625 g ai/ha; for pest or weed control at 15.625 g/ha / pest or weed control at 250 g/ha: read-out: Morningglory, Ivy-leaved damage rating (100=total damage to plant; 0=no damage to plant); for pest or weed control at 62.5 g/ha: 62.5 g ai/ha, 100=total damage to plant, 0=no damage to plant, read-out: Morningglory, Ivy-leaved damage rating; for pest or weed control at 250 g/ha: 250 g ai/ha
How it was run: as §1

[6] = tested on: barnyardgrass (Echinochloa crus-galli); test: Test G Pre-Emergence Protocol; settings: Echinochloa crus-galli, pre-emergence, 312 h, evaluated after 13 days; for pest or weed control at 15.625 g/ha: 15.625 g ai/ha; for pest or weed control at 15.625 g/ha / pest or weed control at 250 g/ha: read-out: Barnyardgrass damage rating (100=total damage to plant; 0=no damage to plant); for pest or weed control at 62.5 g/ha: 62.5 g ai/ha, 100=total damage to plant, 0=no damage to plant, read-out: Barnyardgrass damage rating; for pest or weed control at 250 g/ha: 250 g ai/ha
How it was run: as §1

[7] = tested on: velvetleaf (Abutilon theophrasti); test: Test G Post-Emergence Protocol; settings: Abutilon theophrasti, post-emergence, 312 h, read-out: Velvetleaf damage rating; for pest or weed control at 15.625 g/ha: 15.625 g ai/ha, evaluated after 13 days (100=total damage to plant; 0=no damage to plant); for pest or weed control at 62.5 g/ha: 62.5 g ai/ha; for pest or weed control at 62.5 g/ha / pest or weed control at 250 g/ha: evaluated after 13 days, 100=total damage to plant, 0=no damage to plant; for pest or weed control at 250 g/ha: 250 g ai/ha
How it was run: (§2)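 Foliar application was made 8 days after sowing, using an aqueous spray of the active in acetone/water (50:50) with 0.5% Tween 20, at doses of 15.625, 62.5 or 250 g/ha. Injury was assessed 13 days later, where 100 meant the plant was fully damaged.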

[8] = tested on: corn (Zea mays); test: Test G Post-Emergence Protocol; settings: Zea mays, post-emergence, 312 h, read-out: Corn damage rating; for plant injury at 15.625 g/ha: 15.625 g ai/ha, evaluated after 13 days (100=total damage to plant; 0=no damage to plant); for plant injury at 62.5 g/ha: 62.5 g ai/ha; for plant injury at 62.5 g/ha / plant injury at 250 g/ha: evaluated after 13 days, 100=total damage to plant, 0=no damage to plant; for plant injury at 250 g/ha: 250 g ai/ha
How it was run: as §2

[9] = tested on: redroot pigweed (Amaranthus retroflexus); test: Test G Post-Emergence Protocol; settings: Amaranthus retroflexus, post-emergence, 312 h, read-out: Pigweed, Redroot damage rating; for pest or weed control at 15.625 g/ha: 15.625 g ai/ha, evaluated after 13 days (100=total damage to plant; 0=no damage to plant); for pest or weed control at 62.5 g/ha: 62.5 g ai/ha; for pest or weed control at 62.5 g/ha / pest or weed control at 250 g/ha: evaluated after 13 days, 100=total damage to plant, 0=no damage to plant; for pest or weed control at 250 g/ha: 250 g ai/ha
How it was run: as §2

[10] = tested on: giant foxtail (Setaria faberi); test: Test G Post-Emergence Protocol; settings: Setaria faberi, post-emergence, 312 h, read-out: Foxtail, Giant damage rating; for pest or weed control at 15.625 g/ha: 15.625 g ai/ha, evaluated after 13 days (100=total damage to plant; 0=no damage to plant); for pest or weed control at 62.5 g/ha: 62.5 g ai/ha; for pest or weed control at 62.5 g/ha / pest or weed control at 250 g/ha: evaluated after 13 days, 100=total damage to plant, 0=no damage to plant; for pest or weed control at 250 g/ha: 250 g ai/ha
How it was run: as §2

[11] = tested on: ivy-leaved morning glory (Ipomoea hederacea); test: Test G Post-Emergence Protocol; settings: Ipomoea, post-emergence, 312 h, read-out: Morningglory, Ivy-leaved damage rating; for pest or weed control at 15.625 g/ha: 15.625 g ai/ha, evaluated after 13 days (100=total damage to plant; 0=no damage to plant); for pest or weed control at 62.5 g/ha: 62.5 g ai/ha; for pest or weed control at 62.5 g/ha / pest or weed control at 250 g/ha: evaluated after 13 days, 100=total damage to plant, 0=no damage to plant; for pest or weed control at 250 g/ha: 250 g ai/ha
How it was run: as §2

[12] = tested on: barnyardgrass (Echinochloa crus-galli); test: Test G Post-Emergence Protocol; settings: Echinochloa crus-galli, post-emergence, 312 h, read-out: Barnyardgrass damage rating; for pest or weed control at 15.625 g/ha: 15.625 g ai/ha, evaluated after 13 days (100=total damage to plant; 0=no damage to plant); for pest or weed control at 62.5 g/ha: 62.5 g ai/ha; for pest or weed control at 62.5 g/ha / pest or weed control at 250 g/ha: evaluated after 13 days, 100=total damage to plant, 0=no damage to plant; for pest or weed control at 250 g/ha: 250 g ai/ha
How it was run: as §2

Compound	pest or weed control at 15.625 g/ha [1]	pest or weed control at 62.5 g/ha [1]	pest or weed control at 250 g/ha [1]	plant injury at 15.625 g/ha [2]	plant injury at 62.5 g/ha [2]	plant injury at 250 g/ha [2]	pest or weed control at 15.625 g/ha [3]	pest or weed control at 62.5 g/ha [3]	pest or weed control at 250 g/ha [3]	pest or weed control at 15.625 g/ha [4]	pest or weed control at 62.5 g/ha [4]	pest or weed control at 250 g/ha [4]	pest or weed control at 15.625 g/ha [5]	pest or weed control at 62.5 g/ha [5]	pest or weed control at 250 g/ha [5]	pest or weed control at 15.625 g/ha [6]	pest or weed control at 62.5 g/ha [6]	pest or weed control at 250 g/ha [6]	pest or weed control at 15.625 g/ha [7]	pest or weed control at 62.5 g/ha [7]	further results
Cc1ccc(C2CN(C)C(=O)C2C(=O)Nc2cccc(F)c2F)cc1[N+](=O)[O-] (stereo not drawn) [Compound 1722]	0%	0%	20%	10%	30%	70%	0%	10%	30%	60%	70%	90%	0%	0%	0%	0%	60%	80%	0%	10%	pest or weed control at 250 g/ha [7]: 10%; plant injury at 15.625 g/ha [8]: 10%; plant injury at 62.5 g/ha [8]: 0%; plant injury at 250 g/ha [8]: 80%; pest or weed control at 15.625 g/ha [9]: 0%; pest or weed control at 62.5 g/ha [9]: 10%; pest or weed control at 250 g/ha [9]: 30%; pest or weed control at 15.625 g/ha [10]: 60%; pest or weed control at 62.5 g/ha [10]: 70%; pest or weed control at 250 g/ha [10]: 80%; pest or weed control at 15.625 g/ha [11]: 20%; pest or weed control at 62.5 g/ha [11]: 30%; pest or weed control at 250 g/ha [11]: 70%; pest or weed control at 15.625 g/ha [12]: 10%; pest or weed control at 62.5 g/ha [12]: 60%; pest or weed control at 250 g/ha [12]: 80%
CN1C[C@@H](c2ccc(C(F)(F)F)cc2)[C@H](C(=O)Nc2ccc(F)nn2)C1=O (racemic) [Compound 1655]	0%	0%	0%	0%	0%	0%	0%	0%	0%	0%	0%	30%	0%	0%	0%	0%	0%	0%	0%	0%	pest or weed control at 250 g/ha [7]: 0%; plant injury at 15.625 g/ha [8]: 0%; plant injury at 62.5 g/ha [8]: 0%; plant injury at 250 g/ha [8]: 0%; pest or weed control at 15.625 g/ha [9]: 0%; pest or weed control at 62.5 g/ha [9]: 0%; pest or weed control at 250 g/ha [9]: 40%; pest or weed control at 15.625 g/ha [10]: 0%; pest or weed control at 62.5 g/ha [10]: 30%; pest or weed control at 250 g/ha [10]: 30%; pest or weed control at 15.625 g/ha [11]: 0%; pest or weed control at 62.5 g/ha [11]: 0%; pest or weed control at 250 g/ha [11]: 0%; pest or weed control at 15.625 g/ha [12]: 0%; pest or weed control at 62.5 g/ha [12]: 20%; pest or weed control at 250 g/ha [12]: 20%
